Experimental data: publication PMC6695845 (Molecules, 2019)
“And” between values parts separate entries of the source, which are not always exact repeats. Equal entries are not always repeated. Structures can show the parent of a compound that is named as a salt. Where two headings read alike, the source gives them in different places.

Assays:
human α4β2 nAChR [1] = target: T1, human α4β2 nAChR (Homo sapiens, UniProt P17787+P43681); assay: two-electrode voltage clamp on human α4β2 nAChR expressed in Xenopus laevis oocytes; format: cell-based; set-up: expressed in transfected cells; host or cells: Xenopus laevis oocytes (nuclear cDNA injection); conditions: for agonist profile at human α4β2 nAChR: in words; for Imax: maximal current normalized to response to 1 mM ACh, mean ± SEM; for Emax: read-out: maximal response (efficacy) as % of the ACh Imax
Description: The functional effects of our compounds were tested on α4β2 nAChR heterologously expressed in Xenopus laevis oocytes. Experiments were carried out by using the two-electrode voltage clamp procedure.
Figure 5 Interaction of phenylpyrrolidine derivatives with human α4β2 nicotinic receptors expressed in Xenopus laevis oocytes. Whole cell currents in response to agonist application were measured by a two-electrode voltage clamp. Concentration-response curves show activation of whole cell currents by compounds 1, 2, 3, and 4. Each point represents data from four to five cells, normalized to the amplitude of the maximal responses of ACh, which was stimulated by 1 mM of ACh. The data are fitted to a single component Hill curve.
The α4β2 nAChRs (wild type) were expressed heterologously in defolliculated oocytes from Xenopus laevis, which were dissected from adult female X. laevis frogs (Nasco, Fort Atkinson, WI, USA). The Oxford Brookes University Animal Research Committee, in accordance with the guidelines of the 1986 Scientific Procedures Act of the United Kingdom, approved the care and use of X. laevis frogs in this study. A mixture of 1:1 of human of α4 and β2 subunits for α4β2 subtype cDNAs were injected into the nuclei of oocytes in a volume of 23 nL/oocyte by using a Nanoject Automatic Oocyte Injector (Drummond Scientific, Broomall, PA, USA). After injection, oocytes were incubated at 17 °C in OPS (NaCl, KCl, CaCl2, MgCl2, pH 7.4) supplemented with a mixture of penicillin-streptomycin-anphotericin-B (10,000 IU/mL penicillin, 10 mg/mL streptomycin, and 25 µg amphotericin-B/mL) and amikacin (100 µg/mL). Experiments were performed on oocytes 2 to 6 days after injection.
Electrophysiological recording from oocyte post-injection was made at room temperature using a standard two electrode voltage clamp technique with an automatic multichannel system (HiClamp, Multichannel Systems, Reutlingen, Germany). Oocytes were impaled by two borosilicate capillary glass (Harvard Instrument: 150 TF GC) microelectrodes filled with 3 M KCl (0.3–2.0 MΩ) and voltage-clamped at −60 mV. During recording, oocytes were perfused with OPS (oocytes perfusion solution), as described in the manual of HiClamp. Agonist responses were normalized to the amplitude of the responses induced by 1 mM ACh, which is the maximal ACh concentration at α4β2 nAChRs. Between each successive ACh or compound application, the cell was perfused with OPS solution for 3 min to allow drug clearance and prevent receptor desensitization.

human α4β2 nAChR [2] = target: T1, human α4β2 nAChR; assay: [3H]cytisine competition binding on membrane homogenates of SH-EP-hα4β2 clonal cells; set-up: expressed in transfected cells; conditions: mean ± SEM of four experiments
Description: First, we determined the half maximal inhibitory concentration (IC50) of the synthesized molecules for human α4β2 nAChR using [^3H]-cytisine ([^3H-Cyt]) as a radioligand. It is well known that [^3H-Cyt] binds to the agonist (orthosteric) site of α4β2 nACRs.
Figure 4 Effects of phenylpyrrolidine derivatives on binding of [^3H]cytisine to human α4β2 nAChRs. Data points represent the mean ± SEM of four experiments. Each experiment was carried out in triplicate. The radioligand concentration in all displacement studies was 1 nM. The concentration-inhibition data was analyzed non-linearly.
Membrane homogenates for [^3H]-Cyt binding studies were prepared from the SH-EP-h α4β2 clonal cell line, which express human α4β2 nAChRs. Cells were maintained in Dulbecco’s modified Eagle’s medium (Invitrogen, UK) supplemented with 5% fetal serum, 10% horse serum, 2 mM L-glutamine, 10 IU/mL penicillin, 10 μg/mL streptomycin, 2.5 μg/mL amphotericin-B, 0.25 mg/mL zeocin, and 0.13 mg/mL hygromycin.
Competition binding studies were performed on membrane homogenates prepared SH-EP-hα4β2 clonal cell line, using [^3H]cyt (PerkinElmer, UK), as previously described. Membrane homogenates were incubated at a final protein concentration of 30 to 50 µg per assay tube in a final volume of 250 µL of binding saline ([…]: 120 NaCl, 5 KCl, 1 MgCl2, 2.5 CaCl2, 50 Tris, pH 7.0) for 75 min at 4 °C with 1 nM [^3H]cyt. […] Bound and free fractions were separated by rapid filtration through Whatman GF/C filters presoaked in binding saline supplemented with 0.1% polyethyleneimine. Radioactivity was quantified by liquid scintillation spectrometry.

human α4β2 nAChR [3] = target: T1, human α4β2 nAChR; conditions: nicotine, included for comparison, no SEM, not in Figure 5; cited from earlier work
[4] = Xenopus laevis oocytes, -60 mV, mean ± SEM of four to five experiments, read-out: α4β2 EC50
[5] = displacement of 1 nM [3H]cytisine, read-out: α4β2 IC50
[6] = relative to 1 mM ACh, Xenopus laevis oocytes

Structure (SMILES): CN1CCC[C@H]1COc1cccc(Br)c1 [Compound 4, (S)-1-methyl-2-(3′-bromophenoxymethyl)pyrrolidine Ether]
- EC50 (human α4β2 nAChR [1]): 56700 ± 1700 nM
- agonist profile at human α4β2 nAChR (human α4β2 nAChR [1]; Xenopus laevis oocytes): partial agonist
- Imax (human α4β2 nAChR [1]; Xenopus laevis oocytes): 0.13 ± 0.01
- Emax (human α4β2 nAChR [1]): 13%
- IC50 (human α4β2 nAChR [2]; α4β2 IC50, displacement of 1 nM [3H]cytisine): 188 ± 7 nM

Structure (SMILES): CN1CCC[C@H]1COc1ccccc1 [Compound 1, (S)-1-methyl-2-(phenoxymethyl)pyrrolidine Ether]
- EC50 (human α4β2 nAChR [1]; [4]): 68800 ± 1300 nM
- agonist profile at human α4β2 nAChR (human α4β2 nAChR [1]; Xenopus laevis oocytes): partial agonist
- IC50 (human α4β2 nAChR [2]; [5]): 204 ± 6 nM

Structure (SMILES): CN1CCC[C@H]1c1cccnc1 [Nicotine]
- Imax (human α4β2 nAChR [3]): 1.00

Structure (SMILES): CN1CCC[C@H]1COc1cccc(N)c1 (as salt: hydrochloride) [Compound 2, (S)-1-methyl-2-(3′-aminophenoxymethyl)pyrrolidine Ether]
- melting point: 198 to 200 °C

Structure (SMILES): CN1CCC[C@H]1COc1cccc(Cl)c1 [Compound 3, (S)-1-methyl-2-(3′-Chlorophenoxymethyl)pyrrolidine Ether]
- EC50 (human α4β2 nAChR [1]; [4]): 63300 ± 2100 nM
- agonist profile at human α4β2 nAChR (human α4β2 nAChR [1]; Xenopus laevis oocytes): partial agonist
- Imax (human α4β2 nAChR [1]; Xenopus laevis oocytes): 0.29 ± 0.01
- Emax (human α4β2 nAChR [1]; [6]): 29%
- IC50 (human α4β2 nAChR [2]; [5]): 221 ± 10 nM

Structure (SMILES): CN1CCC[C@H]1COc1cccc(N)c1 [Compound 2, (S)-1-methyl-2-(3′-aminophenoxymethyl)pyrrolidine Ether]
- EC50 (human α4β2 nAChR [1]; [4]): 10800 ± 700 nM
- agonist profile at human α4β2 nAChR (human α4β2 nAChR [1]; Xenopus laevis oocytes): full agonist
- fold more potent than compound 1 (EC50) (human α4β2 nAChR [1]; Xenopus laevis oocytes, ratio of EC50 values): about seven-fold
- Imax (human α4β2 nAChR [1]; Xenopus laevis oocytes): 1.00 ± 0.01
- Emax (human α4β2 nAChR [1]; [6]): 100%
- IC50 (human α4β2 nAChR [2]; [5]): 13 nM and 13.8 nM
